Drawing on PubChem BioAssay (NCI), this text covers TGI for eight compounds.

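Interpolation was linear, between the two tested concentrations surrounding the appropriate level; five concentrations were tested over 48 hours in 96-well plates. TGI denotes the concentration required for complete inhibition of growth.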

Some test systems named below: 786-0 renal; A498 renal; CAKI-1 renal; COLO 205 colon; HOP-92 NSCLC; K-562 leukemia; M14 melanoma; MOLT-4 leukemia; NCI-H460 lung; SF-268 CNS; SK-MEL-28 melanoma; SK-MEL-5 melanoma; SK-OV-3 ovarian; SNB-75 CNS; U251 CNS; HS 578T breast; NCI-H226 lung; NCI/ADR-RES ovarian; UACC-257 melanoma; BT-549 breast.
Holding throughout (experiment): growth of human tumour cells (NCI), 48 h

Turning to `COc1ccc(-c2nc3c(nc2-c2ccc(OC)cc2)N(C)S(=O)(=O)N=C3N)cc1`, the TGI in the assay on 786-0 renal is 50.1 µM; in the assay with A498 renal it was over 100 µM; in the assay on CAKI-1 renal, 94.9 µM; with COLO 205 colon it was 32.5 µM; in the assay with HOP-92 NSCLC, 51.6 µM; with K-562 leukemia, over 100 µM. Moreover, the TGI is over 100 µM in the assay with M14 melanoma; 48.5 µM with MOLT-4 leukemia; over 100 µM with NCI-H460 lung; over 100 µM in the assay with SF-268 CNS; over 100 µM with SK-MEL-28 melanoma; 26.2 µM in the assay with SK-MEL-5 melanoma. Besides, the TGI in the assay with SK-OV-3 ovarian was 88.8 µM; in the assay on SNB-75 CNS, over 100 µM; in the assay on U251 CNS, over 100 µM.

On to `CN(C)Cc1cc(C(=O)/C=C/c2ccc(F)cc2)cc(CN(C)C)c1O`, for which the TGI with 786-0 renal is over 100 µM; in the assay on A498 renal, 94.8 µM; in the assay on CAKI-1 renal, 67.3 µM; with HOP-92 NSCLC, 97.5 µM; with HS 578T breast, 86.9 µM; in the assay with K-562 leukemia, 62.5 µM. Also, the TGI with M14 melanoma was 27.4 µM; in the assay with MOLT-4 leukemia, 53.8 µM; in the assay on NCI-H226 lung it was over 100 µM; in the assay on NCI-H460 lung, 22.3 µM; in the assay on NCI/ADR-RES ovarian, 86.2 µM; in the assay with SF-268 CNS, 63.9 µM. The TGI in the assay with SK-MEL-28 melanoma was over 100 µM; in the assay with SK-MEL-5 melanoma, 35.5 µM; in the assay on SNB-75 CNS it was 87.2 µM; with U251 CNS, over 100 µM; in the assay on UACC-257 melanoma, 31 µM.

In the case of `COc1ccc(-c2cc(-c3ccccc3)nc3c2CC(=O)Nc2ccccc2-3)cc1OC`, the TGI in the assay with 786-0 renal was over 100 µM; in the assay with A498 renal, 50.5 µM; in the assay with BT-549 breast, over 100 µM; in the assay on CAKI-1 renal it was over 100 µM; with COLO 205 colon, over 100 µM; in the assay with HOP-92 NSCLC, over 100 µM. The TGI with K-562 leukemia, in the assay on M14 melanoma, in the assay on MOLT-4 leukemia, in the assay with NCI-H226 lung, with NCI-H460 lung and in the assay with NCI/ADR-RES ovarian was over 100 µM each time. Moreover, the TGI in the assay on SF-268 CNS was over 100 µM; in the assay on SK-MEL-28 melanoma, over 100 µM; in the assay with SK-MEL-5 melanoma, over 100 µM; in the assay on SK-OV-3 ovarian, over 92.6 µM; in the assay on SNB-75 CNS it was 2.67 µM; in the assay with U251 CNS it was over 100 µM. Also, the TGI in the assay with UACC-257 melanoma is over 100 µM.

Turning to `COc1cc2cc3c4c(cc(OC)c(OC)c4c2cc1OC)CCN3C(=O)CCC(=O)O`, the TGI in the assay on 786-0 renal, with A498 renal, with CAKI-1 renal, with COLO 205 colon, in the assay with HOP-92 NSCLC and in the assay with K-562 leukemia was over 100 µM in each case. Also, the TGI with M14 melanoma, in the assay on MOLT-4 leukemia, with NCI-H226 lung, in the assay with SF-268 CNS, in the assay on SK-MEL-28 melanoma and with SK-MEL-5 melanoma was over 100 µM each time. Further, the TGI with SK-OV-3 ovarian, in the assay with U251 CNS and in the assay with UACC-257 melanoma was over 100 µM each time.

As for `O=[p+]1c2ccccc2[nH]c2ccccc21`, the TGI in the assay with 786-0 renal, in the assay with A498 renal, with CAKI-1 renal, with COLO 205 colon, in the assay with HOP-92 NSCLC and in the assay with K-562 leukemia was over 100 µM throughout. The TGI in the assay on M14 melanoma, in the assay with MOLT-4 leukemia, with NCI-H226 lung, in the assay with NCI-H460 lung, in the assay on NCI/ADR-RES ovarian and in the assay with SF-268 CNS was over 100 µM throughout. Besides, the TGI with SK-MEL-28 melanoma, in the assay with SK-MEL-5 melanoma, with SK-OV-3 ovarian, with SNB-75 CNS, in the assay with U251 CNS and in the assay with UACC-257 melanoma was over 100 µM in each case.

On to `Cc1cc(C)c(C(=O)/C=C/c2ccccc2)c(C)c1`, for which the TGI is 81.6 µM in the assay with 786-0 renal; over 100 µM in the assay on CAKI-1 renal; 71.3 µM in the assay with COLO 205 colon; 58.4 µM in the assay on HOP-92 NSCLC; over 100 µM in the assay with K-562 leukemia; 40.3 µM with M14 melanoma. Also, the TGI in the assay on MOLT-4 leukemia was over 100 µM; with NCI-H226 lung, 43.1 µM; with NCI-H460 lung, 39.3 µM; in the assay with SF-268 CNS, 50.6 µM; in the assay with SK-MEL-5 melanoma, over 100 µM; in the assay on SK-OV-3 ovarian, over 100 µM. For the same compound, the results for the TGI in the assay on SNB-75 CNS, with U251 CNS and with UACC-257 melanoma were over 100 µM, 29.4 µM and over 100 µM, respectively.

Take `O=P1(Oc2ccccc2)NCc2ncccc2O1` (stereo not drawn): the TGI in the assay on 786-0 renal, in the assay with A498 renal, in the assay with BT-549 breast, in the assay on CAKI-1 renal, in the assay on COLO 205 colon and with HOP-92 NSCLC was over 100 µM throughout. Moreover, the TGI with K-562 leukemia, with M14 melanoma, with MOLT-4 leukemia, in the assay on NCI-H226 lung, in the assay on NCI-H460 lung and in the assay on NCI/ADR-RES ovarian was over 100 µM each time. Also, the TGI with SK-MEL-28 melanoma, with SK-MEL-5 melanoma, in the assay on SNB-75 CNS, in the assay with U251 CNS and in the assay on UACC-257 melanoma was over 100 µM in each case.

As to `CC(C)(SCc1ccccc1)C(N)C(=O)O` (stereo not drawn), the TGI in the assay on 786-0 renal, with A498 renal, with BT-549 breast, in the assay with CAKI-1 renal, in the assay on HOP-92 NSCLC and in the assay on K-562 leukemia was over 100 µM throughout. Besides, the TGI in the assay with M14 melanoma, in the assay on MOLT-4 leukemia, with NCI-H226 lung, in the assay on NCI-H460 lung, in the assay on NCI/ADR-RES ovarian and with SF-268 CNS was over 100 µM throughout. Further, the TGI in the assay with SK-MEL-28 melanoma, in the assay on SK-MEL-5 melanoma, with SNB-75 CNS, in the assay on U251 CNS and in the assay with UACC-257 melanoma was over 100 µM each time.
